Experimental data from patent US20100129434A1, “COMPOSITIONS AND METHODS FOR THE TREATMENT OF MUCORMYCOSIS AND OTHER FUNGAL DISEASES” (priority 2006, published 2010).
Values after ≈ are worked out from the molar mass of the structure shown. Like-named read-outs stand apart in the source and are kept apart here.

Test system: R. oryzae
Test: Deferasirox susceptibility testing (MIC/MFC), R. oryzae isolates
Assay type: cell-based, Rhizopus oryzae
Settings: for MFC / MIC: Rhizopus arrhizus; for MFC: read-out: MFC; for MIC: read-out: MIC
Method: Minimum inhibitory concentration (MIC) and minimum fungicidal concentration (MFC) were determined for deferasirox by the method of Espinel-Ingroff using R. oryzae spores starved for iron (Espinel-Ingroff, (2001), supra). Cidality was defined as a <4-fold difference between MIC and MFC.
We next determined the deferasirox susceptibilities of multiple clinical isolates of Mucorales (Table 3). The MIC9OS of deferasirox against Mucor, non-oryzae Rhizopus spp., and R. oryzae were 3.12 to 6.25 μg/ml. MFCs were similar to MICs, and deferasirox was cidal for 28/29 (97%) of isolates. Of note, slight growth was seen within the first twelve hours even at extremely high concentrations of deferasirox. […] Furthermore, the MICs and MFCs of deferasirox against these isolates were well below clinically achievable peak (˜38 μg/ml) and trough serum levels (˜17 μg/ml) of the drug at steady state when administered at the FDA-approved starting dose (20 mg/kg/d).

[1] = 24 h, R. oryzae pyr17 pyrG−/−, 24 h
[2] = 24 h, R. orzae type II 10206, 24 h

O=C(O)c1ccc(-n2nc(-c3ccccc3O)nc2-c2ccccc2O)cc1 [Deferasirox, 4-[3,5-Bis(2-hydroxyphenyl)-1H-1,2,4-triazol-1-yl]-benzoic acid]
Fungicidal? (R. oryzae 99-133, 24 h): Y (Cidal = MFC/MIC ≦ 4) | Fungicidal? (R. oryzae 99-133, 48 h): Y (Cidal = MFC/MIC ≦ 4) | Fungicidal? (R. oryzae 99-880, 24 h): Y (Cidal = MFC/MIC ≦ 4) | Fungicidal? (R. oryzae 99-880, 48 h): Y (Cidal = MFC/MIC ≦ 4) | Fungicidal? (R. oryzae 99-892, 24 h): Y (Cidal = MFC/MIC ≦ 4) | Fungicidal? (R. oryzae 99-892, 48 h): Y (Cidal = MFC/MIC ≦ 4) | Fungicidal? (R. oryzae 729-02, 24 h): Y (Cidal = MFC/MIC ≦ 4) | Fungicidal? (R. oryzae 729-02, 48 h): Y (Cidal = MFC/MIC ≦ 4) | Fungicidal? (R. oryzae HUMC 02, 24 h): Y (Cidal = MFC/MIC ≦ 4) | Fungicidal? (R. oryzae HUMC 02, 48 h): Y (Cidal = MFC/MIC ≦ 4) | Fungicidal? (R. oryzae MIC90/MFC90, 24 h): Y (Cidal = MFC/MIC ≦ 4) | MFC90 (R. oryzae MIC90/MFC90, 24 h): 12.5 µg/mL (≈ 33.5 µM) | Fungicidal? (R. oryzae MIC90/MFC90, 48 h): Y (Cidal = MFC/MIC ≦ 4) | MFC90 (R. oryzae MIC90/MFC90, 48 h): 6.25 µg/mL (≈ 16.7 µM) | Fungicidal? (R. oryzae pyr17 pyrG−/−, 24 h): Y (Cidal = MFC/MIC ≦ 4) | Fungicidal? (R. oryzae pyr17 pyrG−/−, 48 h): Y (Cidal = MFC/MIC ≦ 4) | Fungicidal? (R. oryzae type 1 NRRL13440, 24 h): N (Cidal = MFC/MIC ≦ 4) | Fungicidal? (R. oryzae type 1 NRRL13440, 48 h): N (Cidal = MFC/MIC ≦ 4) | Fungicidal? (R. oryzae type I NRRL 6059, 24 h): Y (Cidal = MFC/MIC ≦ 4) | Fungicidal? (R. oryzae type I NRRL 6059, 48 h): Y (Cidal = MFC/MIC ≦ 4) | Fungicidal? (R. oryzae type I NRRL 10206, 24 h): Y (Cidal = MFC/MIC ≦ 4) | Fungicidal? (R. oryzae type I NRRL 10206, 48 h): Y (Cidal = MFC/MIC ≦ 4) | Fungicidal? (R. oryzae type I NRRL11823, 24 h): Y (Cidal = MFC/MIC ≦ 4) | Fungicidal? (R. oryzae type I NRRL11823, 48 h): Y (Cidal = MFC/MIC ≦ 4) | Fungicidal? (R. oryzae type I NRRL13142, 24 h): Y (Cidal = MFC/MIC ≦ 4) | Fungicidal? (R. oryzae type I NRRL13142, 48 h): Y (Cidal = MFC/MIC ≦ 4) | Fungicidal? (R. oryzae type I NRRL13533, 24 h): Y (Cidal = MFC/MIC ≦ 4) | Fungicidal? (R. oryzae type I NRRL13533, 48 h): Y (Cidal = MFC/MIC ≦ 4) | Fungicidal? (R. oryzae type I NRRL 21251, 24 h): Y (Cidal = MFC/MIC ≦ 4) | Fungicidal? (R. oryzae type I NRRL 21251, 48 h): Y (Cidal = MFC/MIC ≦ 4) | Fungicidal? (R. oryzae type I NRRL21396, 24 h): Y (Cidal = MFC/MIC ≦ 4) | Fungicidal? (R. oryzae type I NRRL21396, 48 h): Y (Cidal = MFC/MIC ≦ 4) | Fungicidal? (R. oryzae type I NRRL21409, 24 h): Y (Cidal = MFC/MIC ≦ 4) | Fungicidal? (R. oryzae type I NRRL21409, 48 h): Y (Cidal = MFC/MIC ≦ 4) | Fungicidal? (R. oryzae type II NRRL 18148, 24 h): Y (Cidal = MFC/MIC ≦ 4) | Fungicidal? (R. oryzae type II NRRL 18148, 48 h): Y (Cidal = MFC/MIC ≦ 4) | Fungicidal? (R. oryzae type II NRRL 21446, 24 h): Y (Cidal = MFC/MIC ≦ 4) | Fungicidal? (R. oryzae type II NRRL 21446, 48 h): Y (Cidal = MFC/MIC ≦ 4) | Fungicidal? (R. oryzae type II NRRL 21447, 24 h): Y (Cidal = MFC/MIC ≦ 4) | Fungicidal? (R. oryzae type II NRRL 21447, 48 h): Y (Cidal = MFC/MIC ≦ 4) | Fungicidal? (R. oryzae type II NRRL 21477, 24 h): Y (Cidal = MFC/MIC ≦ 4) | Fungicidal? (R. oryzae type II NRRL 21477, 48 h): Y (Cidal = MFC/MIC ≦ 4) | Fungicidal? (R. oryzae type II NRRL 21628, 24 h): Y (Cidal = MFC/MIC ≦ 4) | Fungicidal? (R. oryzae type II NRRL 21628, 48 h): Y (Cidal = MFC/MIC ≦ 4) | Fungicidal? (R. oryzae type II NRRL 21789, 24 h): Y (Cidal = MFC/MIC ≦ 4) | Fungicidal? (R. oryzae type II NRRL 21789, 48 h): Y (Cidal = MFC/MIC ≦ 4) | Fungicidal? (R. orzae type II 10206, 24 h): Y (Cidal = MFC/MIC ≦ 4) | Fungicidal? (R. orzae type II 10206, 48 h): Y (Cidal = MFC/MIC ≦ 4) | MFC (24 h, R. oryzae 99-133, 24 h): 6.25 µg/mL (≈ 16.7 µM) | MIC (24 h, R. oryzae 99-133, 24 h): 6.25 µg/mL (≈ 16.7 µM) | MFC (24 h, R. oryzae 99-880, 24 h): 3.12 µg/mL (≈ 8.36 µM) | MIC (24 h, R. oryzae 99-880, 24 h): 3.12 µg/mL (≈ 8.36 µM) | MFC (24 h, R. oryzae 99-892, 24 h): 1.56 µg/mL (≈ 4.18 µM) | MIC (24 h, R. oryzae 99-892, 24 h): 1.56 µg/mL (≈ 4.18 µM) | MFC (24 h, R. oryzae 729-02, 24 h): 12.5 µg/mL (≈ 33.5 µM) | MIC (24 h, R. oryzae 729-02, 24 h): 12.5 µg/mL (≈ 33.5 µM) | MFC (24 h, R. oryzae HUMC 02, 24 h): 12.5 µg/mL (≈ 33.5 µM) | MIC (24 h, R. oryzae HUMC 02, 24 h): 12.5 µg/mL (≈ 33.5 µM) | MFC [1]: 0.78 µg/mL (≈ 2.09 µM) | MIC [1]: 0.78 µg/mL (≈ 2.09 µM) | MFC [2]: 3.12 µg/mL (≈ 8.36 µM) | MIC [2]: 3.12 µg/mL (≈ 8.36 µM) | MFC (48 h, R. oryzae 99-133, 48 h): 6.25 µg/mL (≈ 16.7 µM) | MIC (48 h, R. oryzae 99-133, 48 h): 1.56 µg/mL (≈ 4.18 µM) | MFC (48 h, R. oryzae 99-880, 48 h): 3.12 µg/mL (≈ 8.36 µM) | MIC (48 h, R. oryzae 99-880, 48 h): 3.12 µg/mL (≈ 8.36 µM) | MFC (48 h, R. oryzae 99-892, 48 h): 1.56 µg/mL (≈ 4.18 µM) | MIC (48 h, R. oryzae 99-892, 48 h): 1.56 µg/mL (≈ 4.18 µM)
